Test results taken from patent US11213499B1, “Use of 3,3′-diselenodipropionic acid (DSePA) as an anticancer agent” (Secretary, Department of Atomic Energy, priority 2020, dated 2022).

Tested on: human A549 xenograft
Assay: Anti-tumor effect in human A549 xenograft model
Format: in vivo
Conditions: for mortality: study period of 30 days
Description: These xenografts representative of NSCLC and CML respectively are considered to be highly aggressive and resistant to chemotherapy treatment. Therefore, any new chemotherapy agent against these cancers is very much sought. For the experiment, a total of 12 mice bearing A549 or K562 tumors of volume in the range of ˜50 mm^3 were divided into two groups (I & II), each group comprising of six mice. […] The group II was administered DSePA daily dissolved in sterile saline through oral route at a dosage of 1 mg/Kg body weight. The tumor volume and body weight of mice from each group were monitored daily for a total period of 30 days from the day of start. The animals were also checked for mortality if any throughout the study period. The experiment in A549 tumor was repeated three times (n=18 for each group) and the experiment in K562 tumor was repeated two times (n=12 for each group). […] This is the first study to show the anticancer activity of DSePA per se using xenograft model of human lung cancer (A549) and human leukemia (K562) cells in mice. Discovery of the application of the anticancer activity of DSePA is a novel invention in context of its probable usage in treatment for lung and leukemia cancer. More specifically the invention proposes a treatment regime and route of administering DSePA to inhibit the growth of human NSCLC (A549) and CML (K562).
For the optimization of the oral dosage of DSePA, a total of 24 mice bearing A549 or K562 xenograft of volume in the range of ˜50 mm^3 were divided into four groups (I-IV), each group comprising of six mice. […] The groups II, III and IV were administered DSePA dissolved in sterile saline through oral route at the dosage of 1, 2.5 and 5 mg/kg body weight respectively. The administration of DSePA was performed daily for 4 weeks. The tumor volume and body weight of mice from each group were monitored daily for a total period of 30 days from the day of start. The animals were also checked for mortality if any throughout the study period.
Animal maintenance—All animal studies were approved by the Institutional Animal Ethics Committee. Animals were housed under standard conditions (20±2° C., 65-70% humidity, 12 h/12 h day/night cycle, balanced laboratory diet and tap water ad libitum.
Xenograft tumor model-A549 and K562 tumor models were developed by Anticancer Drug Screening Facility of Advanced Centre for Treatment, Research and Education in Cancer (ACTREC), India. Briefly, Male/female NOD-SCID aged 6-7 weeks were housed in the laboratory animal facility of ACTREC. Donor mice carrying K562 or A549 xenografts were developed by injecting 2×10^6 cells in 100 μl of DMEM/RPMI, subcutaneously in their right flank. When tumors attained the size of approximately 2000 mm^3, the animals were sacrificed. Tumors were obtained and further cut into 2-3 mm fragments and implanted subcutaneously in the right flank of 6-7 weeks old recipient SCID mice. Tumors were allowed to grow to a size of approximately 50 mm^3 following which animals were divided into groups of six animals each for evaluation. A fresh DSePA solution was prepared by dissolution in sterile saline before each administration by intraperitoneal/oral route. The tumor efficacy of DSePA was determined by monitoring parameters like tumor volume and T/C. Tumors were assumed spherical and volume was calculated using following equations (1 & 2): […]
Where d1 (mm) and d2 (mm) are diameters measured in two perpendicular planes. T/C is defined as the ratio of the mean tumor volume of DSePA treated groups with the mean tumor volume of control group on the day of observation.

[1] = 1 mg/kg body weight daily oral, day 1
[2] = 1 mg/kg body weight daily oral, day 5
[3] = 1 mg/kg body weight daily oral, day 9
[4] = 1 mg/kg body weight daily oral, day 12
[5] = 1 mg/kg body weight daily oral, day 15
[6] = 1 mg/kg body weight daily oral, day 18
[7] = 1 mg/kg body weight daily oral, day 21
[8] = 1 mg/kg body weight daily oral, day 24
[9] = 1 mg/kg body weight daily oral, day 27
[10] = 1 mg/kg body weight daily oral, day 31
[11] = 2.5 mg/kg body weight daily oral, day 1
[12] = 2.5 mg/kg body weight daily oral, day 5
[13] = 2.5 mg/kg body weight daily oral, day 9
[14] = 2.5 mg/kg body weight daily oral, day 12
[15] = 2.5 mg/kg body weight daily oral, day 15
[16] = 2.5 mg/kg body weight daily oral, day 18
[17] = 2.5 mg/kg body weight daily oral, day 21
[18] = 2.5 mg/kg body weight daily oral, day 24
[19] = 2.5 mg/kg body weight daily oral, day 27
[20] = 2.5 mg/kg body weight daily oral, day 31
[21] = 5 mg/kg body weight daily oral, day 1
[22] = 5 mg/kg body weight daily oral, day 5
[23] = 5 mg/kg body weight daily oral, day 9
[24] = 5 mg/kg body weight daily oral, day 12
[25] = 5 mg/kg body weight daily oral, day 15
[26] = 5 mg/kg body weight daily oral, day 18
[27] = 5 mg/kg body weight daily oral, day 21
[28] = 5 mg/kg body weight daily oral, day 24
[29] = 5 mg/kg body weight daily oral, day 27
[30] = 5 mg/kg body weight daily oral, day 31

SMILES: O=C(O)CC[Se][Se]CCC(=O)O [DSePA, 3,3′-diselenodipropionic acid]
- tumor growth inhibition vs control (1 mg/Kg body weight daily oral, three independent experiments): significantly (P<0.05) inhibited the growth
- overall reduction (relative tumor volume vs tumor control) (1 mg/Kg orally daily, end of study period (30 days), n=18, P=0.0009): ~2 folds
- mortality (1 mg/Kg orally daily, three independent studies): did not show any mortality
- % S (Survival) [1]: 100%
- RTV (Relative Tumor Volume) [1]: 1
- T/C (T (test)/C (control)) [1]: 1
- % S (Survival) [2]: 100%
- RTV (Relative Tumor Volume) [2]: 1.23
- T/C (T (test)/C (control)) [2]: 0.98
- % S (Survival) [3]: 100%
- RTV (Relative Tumor Volume) [3]: 1.64
- T/C (T (test)/C (control)) [3]: 0.98
- % S (Survival) [4]: 100%
- RTV (Relative Tumor Volume) [4]: 1.83
- T/C (T (test)/C (control)) [4]: 0.87
- % S (Survival) [5]: 100%
- RTV (Relative Tumor Volume) [5]: 1.80
- T/C (T (test)/C (control)) [5]: 0.76
- % S (Survival) [6]: 100%
- RTV (Relative Tumor Volume) [6]: 2.36
- T/C (T (test)/C (control)) [6]: 0.71
- % S (Survival) [7]: 100%
- RTV (Relative Tumor Volume) [7]: 2.47
- T/C (T (test)/C (control)) [7]: 0.68
- % S (Survival) [8]: 100%
- RTV (Relative Tumor Volume) [8]: 2.66
- T/C (T (test)/C (control)) [8]: 0.52
- % S (Survival) [9]: 100%
- RTV (Relative Tumor Volume) [9]: 2.94
- T/C (T (test)/C (control)) [9]: 0.47
- % S (Survival) [10]: 100%
- RTV (Relative Tumor Volume) [10]: 3.70
- T/C (T (test)/C (control)) [10]: 0.45
- % S (Survival) [11]: 100%
- RTV (Relative Tumor Volume) [11]: 1
- T/C (T (test)/C (control)) [11]: 1
- % S (Survival) [12]: 100%
- RTV (Relative Tumor Volume) [12]: 0.99
- T/C (T (test)/C (control)) [12]: 0.79
- % S (Survival) [13]: 100%
- RTV (Relative Tumor Volume) [13]: 1.10
- T/C (T (test)/C (control)) [13]: 0.66
- % S (Survival) [14]: 100%
- RTV (Relative Tumor Volume) [14]: 1.25
- T/C (T (test)/C (control)) [14]: 0.59
- % S (Survival) [15]: 100%
- RTV (Relative Tumor Volume) [15]: 1.03
- T/C (T (test)/C (control)) [15]: 0.43
- % S (Survival) [16]: 100%
- RTV (Relative Tumor Volume) [16]: 1.31
- T/C (T (test)/C (control)) [16]: 0.39
- % S (Survival) [17]: 100%
- RTV (Relative Tumor Volume) [17]: 1.40
- T/C (T (test)/C (control)) [17]: 0.38
- % S (Survival) [18]: 100%
- RTV (Relative Tumor Volume) [18]: 1.81
- T/C (T (test)/C (control)) [18]: 0.35
- % S (Survival) [19]: 100%
- RTV (Relative Tumor Volume) [19]: 1.96
- T/C (T (test)/C (control)) [19]: 0.31
- % S (Survival) [20]: 100%
- RTV (Relative Tumor Volume) [20]: 2.84
- T/C (T (test)/C (control)) [20]: 0.35
- % S (Survival) [21]: 100%
- RTV (Relative Tumor Volume) [21]: 1
- T/C (T (test)/C (control)) [21]: 1
- % S (Survival) [22]: 100%
- RTV (Relative Tumor Volume) [22]: 0.94
- T/C (T (test)/C (control)) [22]: 0.75
- % S (Survival) [23]: 100%
- RTV (Relative Tumor Volume) [23]: 1.29
- T/C (T (test)/C (control)) [23]: 0.76
- % S (Survival) [24]: 100%
- RTV (Relative Tumor Volume) [24]: 1.30
- T/C (T (test)/C (control)) [24]: 0.62
- % S (Survival) [25]: 100%
- RTV (Relative Tumor Volume) [25]: 1.19
- T/C (T (test)/C (control)) [25]: 0.50
- % S (Survival) [26]: 100%
- RTV (Relative Tumor Volume) [26]: 2.22
- T/C (T (test)/C (control)) [26]: 0.67
- % S (Survival) [27]: 100%
- RTV (Relative Tumor Volume) [27]: 2.34
- T/C (T (test)/C (control)) [27]: 0.65
- % S (Survival) [28]: 100%
- RTV (Relative Tumor Volume) [28]: 2.94
- T/C (T (test)/C (control)) [28]: 0.57
- % S (Survival) [29]: 100%
- RTV (Relative Tumor Volume) [29]: 2.92
- T/C (T (test)/C (control)) [29]: 0.47
- % S (Survival) [30]: 100%
- RTV (Relative Tumor Volume) [30]: 5.30
- T/C (T (test)/C (control)) [30]: 0.65
- tumor growth inhibition vs control (dosage optimization, 1 mg/kg body weight daily oral for 4 weeks): significantly (P<0.05) inhibited the growth of A549 tumor from day 21 onwards
- tumor growth inhibition vs control (dosage optimization, 2.5 mg/kg body weight daily oral for 4 weeks): significantly (P<0.05) inhibited the growth of A549 tumor from day 21 onwards
- tumor growth inhibition vs control (dosage optimization, 5 mg/kg body weight daily oral, experimental end point (31st day)): did not show any significant suppression of A549 tumor
- mortality (dosage optimization, 1, 2.5 and 5 mg/kg daily oral): did not show any mortality
- T/C achieved (lung model, 1 mg/kg body weight daily oral): ≤ 0.42
- minimum dosage to achieve optimum efficacy (oral daily): 1 mg/kg body weight
